Measured values: paper PMC11642044 (International Journal of Molecular Sciences, 2024)
pEC50: −log10 of the molar value. Like-named read-outs stand apart in the source and are kept apart here. Where a SMILES comes first, the peptide text is derived from it.

Legend:
primary astrocytes [1] = assay: LIF secretion (ELISA), primary astrocytes; assay type: cell-based, mouse
Protocol: HEK293, U87-MG, 1321N1, SK-N-SH, and SK-N-MC cells were cultured in MEM supplemented with 10% (vol/vol) fetal bovine serum (FBS), 50 U/mL penicillin, and 50 μg/mL streptomycin. Primary astrocyte cultures were prepared from the cerebral cortexes of neonatal mice (P2). The cerebral hemispheres were isolated and transferred to ice-cold Hank’s buffer, and the meninges were carefully removed. Tissues were then minced into approximately 1 mm pieces, triturated, filtered through a 60 µm nylon screen, and collected by centrifugation at approximately 3000× g for 5 min. The cell pellets were dispersed with a pipette and resuspended in a medium containing 10% (vol/vol) FBS in low-glucose Dulbecco’s modified Eagle’s medium. After trituration, the cells were filtered through a 10 µm screen and then plated into 6-well plates at a density of 3 × 10^5 cells/mL and cultured for about 10 days. The medium was replaced twice per week. Dibutyryl cyclic adenosine monophosphate (DBcAMP; 0.15 mM, Sigma, St Louis, MO, USA) was added to induce differentiation when the cells were grown to 95% confluence. […]
Conditioned media were analyzed for the presence of multiple cytokines by using the cytokine multiplex assay kits (Merck Millipore, MA, USA) as previously described. […] The detection beads were then washed again and resuspended in 120 μL of reading buffer. […]

U87-MG cells [2] = assay: LIF production into conditioned media (ELISA), U87-MG; assay type: cell-based, human
U87-MG cells [3] = assay: Intracellular Ca2+ mobilization by Gq-coupled receptor agonists (FLIPR, Fluo-4), U87-MG; assay type: cell-based, human
Protocol: (§1) Cells were seeded in 96-well plates (clear bottom and black wall) at 2.5 × 10^4 cells per well on the day before assay. The cells (~80–100% confluence) were then washed with Hank’s balanced salt solution (HBSS) and aspirated, followed by addition of 100 μL of FLIPR labeling dye (containing Fluo-4 and probenecid in HBSS) to each well before incubation at 37 °C for 1 h. Finally, the 96-well plate containing the labeled cells was transferred to the FLIPR (Molecular Devices, San Jose, CA, USA), and 50 μL of HBSS (with or without agonists) was added to each well. The fluorescent signals that reflect the intracellular Ca^2+ transients were monitored by an excitation wavelength of 488 nm, and detection was undertaken with an emission wavelength from 510 to 570 nm for 3 min upon the drug treatments, as described previously.

1321-N1 cells = assay: Intracellular Ca2+ mobilization by Gq-coupled receptor agonists (FLIPR, Fluo-4), 1321-N1; assay type: cell-based, human
Protocol: as §1

primary astrocytes [4] = assay: Intracellular Ca2+ mobilization by Gq-coupled receptor agonists (FLIPR, Fluo-4), primary cortical astrocytes; assay type: cell-based, mouse; details: 10 μM agonist, n = 4
Protocol: HEK293, U87-MG, 1321N1, SK-N-SH, and SK-N-MC cells were cultured in MEM supplemented with 10% (vol/vol) fetal bovine serum (FBS), 50 U/mL penicillin, and 50 μg/mL streptomycin. Primary astrocyte cultures were prepared from the cerebral cortexes of neonatal mice (P2). The cerebral hemispheres were isolated and transferred to ice-cold Hank’s buffer, and the meninges were carefully removed. Tissues were then minced into approximately 1 mm pieces, triturated, filtered through a 60 µm nylon screen, and collected by centrifugation at approximately 3000× g for 5 min. The cell pellets were dispersed with a pipette and resuspended in a medium containing 10% (vol/vol) FBS in low-glucose Dulbecco’s modified Eagle’s medium. After trituration, the cells were filtered through a 10 µm screen and then plated into 6-well plates at a density of 3 × 10^5 cells/mL and cultured for about 10 days. The medium was replaced twice per week. Dibutyryl cyclic adenosine monophosphate (DBcAMP; 0.15 mM, Sigma, St Louis, MO, USA) was added to induce differentiation when the cells were grown to 95% confluence. Primary mouse cortical neuronal cultures were obtained from E16 ICR mouse embryos. Briefly, cerebral cortices were removed from mouse embryos and mechanically dissociated in PBS with glucose (18 mM). Neurons were then seeded onto poly-L-lysine (1 mg/mL)-coated 96-well plates at 5 × 10^4 cells/well in a B27 Plus Neuronal culture system (Thermo Fisher Scientific), supplemented with 2 mM glutamine, 5 μM mercaptoethanol, 100 U/mL penicillin and 100 μg/mL streptomycin. The cultured neurons were maintained in a humidified incubator at 37 °C with 5% CO2 for 7 days prior to use.
as §1

STAT3 in SK-N-MC cells [5] = assay: STAT3 Tyr705 phosphorylation in SK-N-MC by conditioned media from agonist-treated U87-MG; assay type: cell-based, human
Protocol: (§2) These conditioned media were either immediately applied to SK-N-SH/SK-N-MC cells (80–100% confluence) in 6-well plates for 15 min, or subjected to heat treatment on a 96 °C heat block for 5 min, and then cooled to 37 °C before they were applied to the SK-N-SH/SK-N-MC cells for 15 min. […] For the SK-N-MC-derived conditioned media, SK-N-MC cells (80–100% confluence) in a 10 cm culture dish were serum-starved in 10 mL of MEM (without FBS), with 1 mL of the resulting conditioned medium being collected at indicated time points (15 min, 1 h, 3 h, 6 h). Simultaneously, U87-MG cells (80–100% confluence) in 12-well plates were serum-starved in MEM for 6 h, followed by pretreatment of […] (5 μM, 15 min), and then challenged with the SK-N-MC-derived conditioned media (mentioned above) for 10 min before cell lysis. […]
(§3) SDS-PAGE and Western blotting were performed as described in our previous studies. […] The amount of protein in each sample was determined by detergent compatible (DC) protein assay according to the supplier’s instruction (Bio-Rad, Hercules, CA, USA). […] Resolved proteins were detected by specific primary antibodies and horseradish peroxidase-conjugated secondary antisera. The level of β-actin was determined as an internal control.

ERK in SK-N-SH cells = assay type: cell-based, human
Protocol: as §2, §3

ERK in SK-N-MC cells = assay type: cell-based, human
Protocol: as §2, §3

[6] = tested on: STAT3 in primary mouse cortical neurons; assay: STAT3 phosphorylation by direct application of cytokine, primary cortical neurons; assay type: cell-based; details: 0–100 ng/mL, 15 min
Protocol: (§4) To determine if the experimental cells were readily responsive to LIF and IL-6, SK-N-MC cells, mouse primary neurons and primary astrocytes (80–100% confluence in 12-well plates) were serum-starved for 6 h, followed by treatment of indicated concentrations (0–100 ng/mL) of LIF and IL-6 for 15 min. The subsequent cell lysates were subjected to SDS-PAGE and Western blot with specific antibodies to detect stimulatory phosphorylated forms and the total amounts of STAT3.
as §3, with “control. […] Chemiluminescence signals were then detected by ChemiDoc imaging systems (Bio-Rad, Hercules, CA, USA) with the subsequent band densities quantified by ImageJ (https://imagej.net/ij/) analysis software (National Institutes of Health, MD, USA). […]” for “control.”

STAT3 in SK-N-MC cells [7] = assay: STAT3 phosphorylation by direct application of cytokine, SK-N-MC; assay type: cell-based, human; details: LIF 0–100 ng/mL, 15 min
Protocol: as §4
as §3, with “control. […] Chemiluminescence signals were then detected by ChemiDoc imaging systems (Bio-Rad, Hercules, CA, USA) with the subsequent band densities quantified by ImageJ (https://imagej.net/ij/) analysis software (National Institutes of Health, MD, USA). […]” for “control.”

STAT3 in U87-MG cells = assay: STAT3 phosphorylation by direct application of cytokine, U87-MG; assay type: cell-based, human
[8] = tested on: STAT3 in primary mouse astrocytes; assay: STAT3 phosphorylation by direct application of cytokine, primary astrocytes; assay type: cell-based; details: 0–100 ng/mL, 15 min
Protocol: as §4
SDS-PAGE and Western blotting were performed as described in our previous studies. In brief, cells in 6-well plates (5 × 10^5 cells/well) were lysed in 500 μL of ice-cold lysis buffer (50 mM Tris-HCl at pH 7.5 containing 100 mM NaCl, 5 mM EDTA, 40 mM NaP2O7, 1% Triton X-100, 1 mM dithiothreitol, 200 μM Na3VO4, 100 μM phenylmethylsulfonyl fluoride, 2 μg/mL leupeptin, 4 μg/mL aprotinin, and 0.7 μg/mL pepstatin) and then gently shaken for 30 min. The amount of protein in each sample was determined by detergent compatible (DC) protein assay according to the supplier’s instruction (Bio-Rad, Hercules, CA, USA). Clarified lysates (30 μg protein per sample) were resolved on 12% SDS-polyacrylamide gels and then transferred to nitrocellulose membranes (Westborough, MA, USA). Resolved proteins were detected by specific primary antibodies and horseradish peroxidase-conjugated secondary antisera. The level of β-actin was determined as an internal control. Immunoblots were visualized by chemiluminescence with the WesternBright ECL reagents from Advansta (San Jose, CA, USA). Chemiluminescence signals were then detected by ChemiDoc imaging systems (Bio-Rad, Hercules, CA, USA) with the subsequent band densities quantified by ImageJ (https://imagej.net/ij/) analysis software (National Institutes of Health, MD, USA). All primary antibodies which specifically recognize B1R, B2R, ERK, p-ERK, p38, p-p38, JNK, p-JNK, STAT3, p-STAT3, and β-actin were applied at 1:1000 dilution for Western blotting.

N=C(N)NCCC[C@H](NC(=O)[C@H](Cc1ccccc1)NC(=O)[C@@H]1CCCN1C(=O)[C@H](CO)NC(=O)[C@H](Cc1ccccc1)NC(=O)CNC(=O)[C@@H]1CCCN1C(=O)[C@@H]1CCCN1C(=O)[C@@H](N)CCCNC(=N)N)C(=O)O [bradykinin] (H-RPPGFSPFR-OH)
pEC50 (primary astrocytes [1]): 7.64

C[N+](C)(C)CCOC(N)=O [carbachol]
LIF production (U87-MG cells [2]; 10 μM agonist, 24 h, U87-MG, ELISA, n = 3): failed to induce the production of LIF | intracellular Ca2+ response (U87-MG cells [3]; 10 μM agonist, U87-MG, FLIPR, Fluo-4, 3 min, n = 3): lack of a carbachol-stimulated Ca^2+ response | Ca2+ response, fold stimulation (1321-N1 cells; 10 μM agonist, 1321-N1, FLIPR): over 100 fold | intracellular Ca2+ response (1321-N1 cells; 10 μM agonist, 1321-N1, FLIPR, Fluo-4, 3 min, n = 3): elicited Ca^2+ responses in 1321-N1 cells | intracellular Ca2+ mobilization (primary astrocytes [4]): significantly stimulated Ca^2+ mobilization

NCCc1c[nH]cn1 [histamine]
LIF production (U87-MG cells [2]): significantly elevated the levels of LIF | Ca2+ response, fold stimulation (U87-MG cells [3]): over 100 fold | intracellular Ca2+ response (U87-MG cells [3]): significantly stimulated intracellular Ca^2+ responses | Ca2+ response, fold stimulation (1321-N1 cells): over 100 fold | intracellular Ca2+ response (1321-N1 cells): significantly stimulated intracellular Ca^2+ responses | STAT3 Tyr705 phosphorylation by conditioned media (STAT3 in SK-N-MC cells [5]): stimulated STAT3 Tyr^705 phosphorylation | ERK phosphorylation by conditioned media (ERK in SK-N-SH cells): little or no change in ERK phosphorylation | ERK phosphorylation by conditioned media (ERK in SK-N-MC cells): little or no change in ERK phosphorylation

leukemia inhibitory factor [LIF]
STAT3 phosphorylation [6]: dose-dependently stimulated STAT3 phosphorylation | STAT3 response compared with IL-6 [6]: apparently stronger than that induced by IL-6 | STAT3 phosphorylation (STAT3 in SK-N-MC cells [7]): dose-dependent manner | STAT3 phosphorylation (STAT3 in U87-MG cells): readily stimulated by LIF in a dose-dependent manner | potency in STAT3 phosphorylation compared with IL-6 [8]: even more potent than IL-6 | STAT3 phosphorylation ([8]; n = 3): readily stimulated by LIF in a dose-dependent manner
